Legend:
Conditions in all cases: 72 h
[1] = test system: Caco-2; experiment: cell viability relative to DMSO; higher = less toxic
[2] = test system: Calu-3; experiment: as above
[3] = test system: HepG2; experiment: as above
[4] = test system: Vero E6; experiment: as above
[5] = test system: Caco-2; experiment: relative viability EC50 (midpoint between 100% and the lowest measured viability); higher = less toxic
[6] = test system: Calu-3; experiment: as above
[7] = test system: HepG2; experiment: as above
[8] = test system: Vero E6; experiment: as above
[9] = test system: Caco-2; experiment: drug sensitivity score (DSS) for viability; higher = more toxic; extreme values may be limits of the assay
[10] = test system: Calu-3; experiment: as above
[11] = test system: HepG2; experiment: as above
[12] = test system: Vero E6; experiment: as above
[13] = test system: U2OS; experiment: cell viability relative to DMSO; higher = less toxic
[14] = test system: U2OS; experiment: relative viability EC50 (midpoint between 100% and the lowest measured viability); higher = less toxic
[15] = test system: U2OS; experiment: drug sensitivity score (DSS) for viability; higher = more toxic; extreme values may be limits of the assay

## CC(=O)N1CCC[C@H]1C(=O)N[C@@H](Cc1cnc[nH]1)C(=O)N[C@@H](CO)C(=O)N[C@@H](CS)C(=O)N[C@@H](CC(N)=O)C(N)=O [ATN-161]
[1]; 1 nM
  cell viability: 107%
[1]; 10 nM
  cell viability: 96.6%
[1]; 100 nM
  cell viability: 97.5%
[1]; 1000 nM
  cell viability: 103%
[1]; 10000 nM
  cell viability: 104%
[2]; 1 nM
  cell viability: 102%
[2]; 10 nM
  cell viability: 102%
[2]; 100 nM
  cell viability: 101%
[2]; 1000 nM
  cell viability: 107%
[2]; 10000 nM
  cell viability: 97.2%
[3]; 1 nM
  cell viability: 102%
[3]; 10 nM
  cell viability: 104%
[3]; 100 nM
  cell viability: 106%
[3]; 1000 nM
  cell viability: 93.4%
[3]; 10000 nM
  cell viability: 106%
[4]; 1 nM
  cell viability: 92.9%
[4]; 10 nM
  cell viability: 103%
[4]; 100 nM
  cell viability: 96.9%
[4]; 1000 nM
  cell viability: 100%
[4]; 10000 nM
  cell viability: 108%
[5]
  relative viability EC50: > 10 µM
[6]
  relative viability EC50: > 10 µM
[7]
  relative viability EC50: > 10 µM
[8]
  relative viability EC50: > 10 µM
[9]
  drug sensitivity score: 0
[10]
  drug sensitivity score: 0
[11]
  drug sensitivity score: 0
[12]
  drug sensitivity score: 0

## COC(=O)Nc1nc2cc([S+]([O-])c3ccccc3)ccc2[nH]1 (centres undefined) [oxfendazole]
[1]; 1 nM
  cell viability: 97%
[1]; 10 nM
  cell viability: 108%
[1]; 100 nM
  cell viability: 104%
[1]; 1000 nM
  cell viability: 94.7%
[1]; 10000 nM
  cell viability: 97.5%
[3]; 1 nM
  cell viability: 90.6%
[3]; 10 nM
  cell viability: 92.5%
[3]; 100 nM
  cell viability: 98.2%
[3]; 1000 nM
  cell viability: 98.1%
[3]; 10000 nM
  cell viability: 75.3%
[13]; 1 nM
  cell viability: 101%
[13]; 10 nM
  cell viability: 96.6%
[13]; 100 nM
  cell viability: 103%
[13]; 1000 nM
  cell viability: 98.1%
[13]; 10000 nM
  cell viability: 103%
[4]; 1 nM
  cell viability: 101%
[4]; 10 nM
  cell viability: 106%
[4]; 100 nM
  cell viability: 100%
[4]; 1000 nM
  cell viability: 104%
[4]; 10000 nM
  cell viability: 90.6%
[5]
  relative viability EC50: > 10 µM
[7]
  relative viability EC50: > 10 µM
[14]
  relative viability EC50: > 10 µM
[8]
  relative viability EC50: > 10 µM
[9]
  drug sensitivity score: 0
[11]
  drug sensitivity score: 1.2
[15]
  drug sensitivity score: 0
[12]
  drug sensitivity score: 0

## O=C(NS(=O)(=O)c1ccc(Br)s1)c1ccc(Cl)cc1Cl [tasisulam]
[1]; 1 nM
  cell viability: 99.7%
[1]; 10 nM
  cell viability: 104%
[1]; 100 nM
  cell viability: 94.9%
[1]; 1000 nM
  cell viability: 101%
[1]; 10000 nM
  cell viability: 92%
[2]; 1 nM
  cell viability: 96.2%
[2]; 10 nM
  cell viability: 104%
[2]; 100 nM
  cell viability: 97.6%
[2]; 1000 nM
  cell viability: 95.4%
[2]; 10000 nM
  cell viability: 100%
[3]; 1 nM
  cell viability: 114%
[3]; 10 nM
  cell viability: 94.2%
[3]; 100 nM
  cell viability: 105%
[3]; 1000 nM
  cell viability: 110%
[3]; 10000 nM
  cell viability: 107%
[13]; 1 nM
  cell viability: 97.2%
[13]; 10 nM
  cell viability: 98.1%
[13]; 100 nM
  cell viability: 96%
[13]; 1000 nM
  cell viability: 101%
[13]; 10000 nM
  cell viability: 102%
[5]
  relative viability EC50: > 10 µM
[6]
  relative viability EC50: > 10 µM
[7]
  relative viability EC50: > 10 µM
[14]
  relative viability EC50: > 10 µM
[9]
  drug sensitivity score: 0
[10]
  drug sensitivity score: 0
[11]
  drug sensitivity score: 0
[15]
  drug sensitivity score: 0

## O=C(O)[C@H](Cc1c[nH]c2ccccc12)N1C(=O)c2ccccc2C1=O [RG108]
[1]; 1 nM
  cell viability: 96.8%
[1]; 10 nM
  cell viability: 100%
[1]; 100 nM
  cell viability: 91.9%
[1]; 1000 nM
  cell viability: 106%
[1]; 10000 nM
  cell viability: 102%
[3]; 1 nM
  cell viability: 118%
[3]; 10 nM
  cell viability: 109%
[3]; 100 nM
  cell viability: 114%
[3]; 1000 nM
  cell viability: 99.8%
[3]; 10000 nM
  cell viability: 109%
[13]; 1 nM
  cell viability: 105%
[13]; 10 nM
  cell viability: 105%
[13]; 100 nM
  cell viability: 97.1%
[13]; 1000 nM
  cell viability: 105%
[13]; 10000 nM
  cell viability: 96.2%
[4]; 1 nM
  cell viability: 97.4%
[4]; 10 nM
  cell viability: 99.1%
[4]; 100 nM
  cell viability: 97.6%
[4]; 1000 nM
  cell viability: 92%
[4]; 10000 nM
  cell viability: 101%
[5]
  relative viability EC50: > 10 µM
[7]
  relative viability EC50: > 10 µM
[14]
  relative viability EC50: > 10 µM
[8]
  relative viability EC50: > 10 µM
[9]
  drug sensitivity score: 0
[11]
  drug sensitivity score: 0
[15]
  drug sensitivity score: 0
[12]
  drug sensitivity score: 0

## NCCNCCNCCN [trientine]
[1]; 1 nM
  cell viability: 107%
[1]; 10 nM
  cell viability: 106%
[1]; 100 nM
  cell viability: 96.4%
[1]; 1000 nM
  cell viability: 94.4%
[1]; 10000 nM
  cell viability: 97.6%
[2]; 1 nM
  cell viability: 89%
[2]; 10 nM
  cell viability: 101%
[2]; 100 nM
  cell viability: 99%
[2]; 1000 nM
  cell viability: 98.7%
[2]; 10000 nM
  cell viability: 99.9%
[3]; 1 nM
  cell viability: 90.9%
[3]; 10 nM
  cell viability: 96.6%
[3]; 100 nM
  cell viability: 92.1%
[3]; 1000 nM
  cell viability: 98%
[3]; 10000 nM
  cell viability: 92.8%
[13]; 1 nM
  cell viability: 100%
[13]; 10 nM
  cell viability: 99.1%
[13]; 100 nM
  cell viability: 100%
[13]; 1000 nM
  cell viability: 97.5%
[13]; 10000 nM
  cell viability: 104%
[5]
  relative viability EC50: > 10 µM
[6]
  relative viability EC50: > 10 µM
[7]
  relative viability EC50: > 10 µM
[14]
  relative viability EC50: > 10 µM
[9]
  drug sensitivity score: 0
[10]
  drug sensitivity score: 0
[11]
  drug sensitivity score: 0
[15]
  drug sensitivity score: 0

## Cc1ccnc(NS(=O)(=O)c2ccc(N)cc2)n1 [sulfamerazine]
[1]; 1 nM
  cell viability: 97%
[1]; 10 nM
  cell viability: 89.8%
[1]; 100 nM
  cell viability: 92%
[1]; 1000 nM
  cell viability: 98.7%
[1]; 10000 nM
  cell viability: 98.2%
[3]; 1 nM
  cell viability: 104%
[3]; 10 nM
  cell viability: 94.1%
[3]; 100 nM
  cell viability: 95.5%
[3]; 1000 nM
  cell viability: 109%
[3]; 10000 nM
  cell viability: 89.3%
[13]; 1 nM
  cell viability: 102%
[13]; 10 nM
  cell viability: 102%
[13]; 100 nM
  cell viability: 94.3%
[13]; 1000 nM
  cell viability: 97.6%
[13]; 10000 nM
  cell viability: 100%
[4]; 1 nM
  cell viability: 104%
[4]; 10 nM
  cell viability: 98.5%
[4]; 100 nM
  cell viability: 97.8%
[4]; 1000 nM
  cell viability: 97.8%
[4]; 10000 nM
  cell viability: 97.8%
[5]
  relative viability EC50: > 10 µM
[7]
  relative viability EC50: > 10 µM
[14]
  relative viability EC50: > 10 µM
[8]
  relative viability EC50: > 10 µM
[9]
  drug sensitivity score: 0
[11]
  drug sensitivity score: 0
[15]
  drug sensitivity score: 0
[12]
  drug sensitivity score: 0

## CC(=O)Nc1ccc(S(=O)(=O)c2ccc(NC(C)=O)cc2)cc1 [acedapsone]
[1]; 1 nM
  cell viability: 119%
[1]; 10 nM
  cell viability: 115%
[1]; 100 nM
  cell viability: 96.2%
[1]; 1000 nM
  cell viability: 108%
[1]; 10000 nM
  cell viability: 92.9%
[3]; 1 nM
  cell viability: 105%
[3]; 10 nM
  cell viability: 97.3%
[3]; 100 nM
  cell viability: 86.3%
[3]; 1000 nM
  cell viability: 107%
[3]; 10000 nM
  cell viability: 102%
[13]; 1 nM
  cell viability: 104%
[13]; 10 nM
  cell viability: 108%
[13]; 100 nM
  cell viability: 102%
[13]; 1000 nM
  cell viability: 104%
[13]; 10000 nM
  cell viability: 97.4%
[4]; 1 nM
  cell viability: 106%
[4]; 10 nM
  cell viability: 101%
[4]; 100 nM
  cell viability: 105%
[4]; 1000 nM
  cell viability: 99.5%
[4]; 10000 nM
  cell viability: 98.8%
[5]
  relative viability EC50: > 10 µM
[7]
  relative viability EC50: > 10 µM
[14]
  relative viability EC50: > 10 µM
[8]
  relative viability EC50: > 10 µM
[9]
  drug sensitivity score: 0
[11]
  drug sensitivity score: 0
[15]
  drug sensitivity score: 0
[12]
  drug sensitivity score: 0

## COC(=O)c1ccccc1O [methyl-salicylate]
[1]; 1 nM
  cell viability: 103%
[1]; 10 nM
  cell viability: 99.4%
[1]; 100 nM
  cell viability: 101%
[1]; 1000 nM
  cell viability: 81%
[1]; 10000 nM
  cell viability: 101%
[3]; 1 nM
  cell viability: 112%
[3]; 10 nM
  cell viability: 101%
[3]; 100 nM
  cell viability: 102%
[3]; 1000 nM
  cell viability: 90.9%
[3]; 10000 nM
  cell viability: 102%
[13]; 1 nM
  cell viability: 98.4%
[13]; 10 nM
  cell viability: 97.2%
[13]; 100 nM
  cell viability: 101%
[13]; 1000 nM
  cell viability: 101%
[13]; 10000 nM
  cell viability: 102%
[4]; 1 nM
  cell viability: 110%
[4]; 10 nM
  cell viability: 104%
[4]; 100 nM
  cell viability: 102%
[4]; 1000 nM
  cell viability: 102%
[4]; 10000 nM
  cell viability: 97.3%
[5]
  relative viability EC50: > 10 µM
[7]
  relative viability EC50: > 10 µM
[14]
  relative viability EC50: > 10 µM
[8]
  relative viability EC50: > 10 µM
[9]
  drug sensitivity score: 0
[11]
  drug sensitivity score: 0
[15]
  drug sensitivity score: 0
[12]
  drug sensitivity score: 0

Reference: the supplement of paper PMC13380429
